Test results as given in patent publication US10500142B2, “Oral care compositions” (COLGATE-PALMOLIVE COMPANY, priority 2015, dated 2019).

How the values were obtained:
[1] = Solution preparation: clarity / dissolution of SnF2 with TSPP or TKPP in water; type: physicochemical; details: 2% SnF2 in water with TSPP or TKPP; as prepared
Experimental: The solutions are prepared by first dissolving TSPP or TKPP in water (mixing under high heat if necessary) and then adding a 20% stannous fluoride solution to the clear solution with an automatic pipet. […] All of the solutions contain 2% SnF2.

[2] = SnCl2.2H2O/pyrophosphate solutions: appearance on preparation and aging at room temperature; type: physicochemical; details: 3% SnCl2.2H2O; aged overnight at room temperature
Experimental: Solutions are prepared by dissolving TSPP in deionized water (mixing under heat if necessary) and then adding 0.6 g of SnCl2.2H2O to make 20-gram solutions.
The solutions with a P/Sn molar ratio spanning from 0.5 to 5 containing 3% SnCl2.2H2O are aged overnight at room temperature. A 3% SnCl2.2H2O solution is used as a control.
Solutions are prepared by dissolving TKPP in deionized water (mixing under heat if necessary) and then adding 0.6 g SnCl2.2H2O to make 20-g solutions.

Row | Compound | appearance / dissolution of the solution on preparation [1] | appearance after aging overnight [2]
1 | [F][Sn][F] [2% stannous fluoride solution, stannous fluoride] | precipitate almost immediately after dissolution | 
2 | O.O.[Cl][Sn][Cl] [3% SnCl2.2H2O solution, SnCl2.2H2O] |  | cloudy precipitate that settles
